# According to ChEMBL document CHEMBL3991601, “The target landscape of clinical kinase drugs” (Science, 2017):
# Active and inactive are the calls of the source.
# Target: T1, Serine/threonine-protein kinase STK11 (Homo sapiens, UniProt Q15831)
# T1 sequence (Q15831 whole entry): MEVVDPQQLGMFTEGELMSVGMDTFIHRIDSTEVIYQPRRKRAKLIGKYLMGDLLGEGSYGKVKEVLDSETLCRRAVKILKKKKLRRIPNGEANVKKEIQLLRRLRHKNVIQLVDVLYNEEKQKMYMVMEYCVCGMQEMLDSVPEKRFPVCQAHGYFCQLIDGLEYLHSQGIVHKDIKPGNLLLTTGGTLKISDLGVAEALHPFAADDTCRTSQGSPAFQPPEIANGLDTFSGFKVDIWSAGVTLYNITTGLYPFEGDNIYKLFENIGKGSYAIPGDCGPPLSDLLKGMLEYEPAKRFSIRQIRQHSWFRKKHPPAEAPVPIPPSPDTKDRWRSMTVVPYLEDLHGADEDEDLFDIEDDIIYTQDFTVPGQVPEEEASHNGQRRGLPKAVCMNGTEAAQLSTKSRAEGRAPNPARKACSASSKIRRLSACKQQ
# Also: in the data inactive means no Kd found up to 30 µM.
row,SMILES,Kd
1,CNC(=O)CN1CCC(Oc2cc3c(Nc4cccc(Cl)c4F)ncnc3cc2OC)CC1 [SAPITINIB],> 30 µM (inactive)
2,CN1CCC(CNc2ccc3ncc(-c4cccc(OC(F)(F)F)c4)n3n2)CC1 [SGI-1776],> 30 µM (inactive)
3,O=c1sn(-c2cccc3ccccc23)c(=O)n1Cc1ccccc1 [TIDEGLUSIB],> 30 µM (inactive)
4,COc1cc2nccc(Oc3ccc(NC(=O)Nc4cc(C)on4)c(Cl)c3)c2cc1OC [TIVOZANIB],> 30 µM (inactive)

# Target: Protein kinase C alpha type (Homo sapiens, UniProt P17252)
row,SMILES,Kd
1,CNC(=O)CN1CCC(Oc2cc3c(Nc4cccc(Cl)c4F)ncnc3cc2OC)CC1 [SAPITINIB],> 30 µM (inactive)
2,CN1CCC(CNc2ccc3ncc(-c4cccc(OC(F)(F)F)c4)n3n2)CC1 [SGI-1776],> 30 µM (inactive)
3,O=c1sn(-c2cccc3ccccc23)c(=O)n1Cc1ccccc1 [TIDEGLUSIB],> 30 µM (inactive)
4,COc1cc2nccc(Oc3ccc(NC(=O)Nc4cc(C)on4)c(Cl)c3)c2cc1OC [TIVOZANIB],> 30 µM (inactive)

# Target: Mitogen-activated protein kinase kinase kinase 4 (Homo sapiens, UniProt Q9Y6R4)
row,SMILES,Kd
1,CNC(=O)CN1CCC(Oc2cc3c(Nc4cccc(Cl)c4F)ncnc3cc2OC)CC1 [SAPITINIB],> 30 µM (inactive)
2,CN1CCC(CNc2ccc3ncc(-c4cccc(OC(F)(F)F)c4)n3n2)CC1 [SGI-1776],> 30 µM (inactive)
3,O=c1sn(-c2cccc3ccccc23)c(=O)n1Cc1ccccc1 [TIDEGLUSIB],> 30 µM (inactive)
4,COc1cc2nccc(Oc3ccc(NC(=O)Nc4cc(C)on4)c(Cl)c3)c2cc1OC [TIVOZANIB],> 30 µM (inactive)

# Target: Chromodomain-helicase-DNA-binding protein 4 (Homo sapiens, UniProt Q14839)
# Sequence (Q14839 whole entry): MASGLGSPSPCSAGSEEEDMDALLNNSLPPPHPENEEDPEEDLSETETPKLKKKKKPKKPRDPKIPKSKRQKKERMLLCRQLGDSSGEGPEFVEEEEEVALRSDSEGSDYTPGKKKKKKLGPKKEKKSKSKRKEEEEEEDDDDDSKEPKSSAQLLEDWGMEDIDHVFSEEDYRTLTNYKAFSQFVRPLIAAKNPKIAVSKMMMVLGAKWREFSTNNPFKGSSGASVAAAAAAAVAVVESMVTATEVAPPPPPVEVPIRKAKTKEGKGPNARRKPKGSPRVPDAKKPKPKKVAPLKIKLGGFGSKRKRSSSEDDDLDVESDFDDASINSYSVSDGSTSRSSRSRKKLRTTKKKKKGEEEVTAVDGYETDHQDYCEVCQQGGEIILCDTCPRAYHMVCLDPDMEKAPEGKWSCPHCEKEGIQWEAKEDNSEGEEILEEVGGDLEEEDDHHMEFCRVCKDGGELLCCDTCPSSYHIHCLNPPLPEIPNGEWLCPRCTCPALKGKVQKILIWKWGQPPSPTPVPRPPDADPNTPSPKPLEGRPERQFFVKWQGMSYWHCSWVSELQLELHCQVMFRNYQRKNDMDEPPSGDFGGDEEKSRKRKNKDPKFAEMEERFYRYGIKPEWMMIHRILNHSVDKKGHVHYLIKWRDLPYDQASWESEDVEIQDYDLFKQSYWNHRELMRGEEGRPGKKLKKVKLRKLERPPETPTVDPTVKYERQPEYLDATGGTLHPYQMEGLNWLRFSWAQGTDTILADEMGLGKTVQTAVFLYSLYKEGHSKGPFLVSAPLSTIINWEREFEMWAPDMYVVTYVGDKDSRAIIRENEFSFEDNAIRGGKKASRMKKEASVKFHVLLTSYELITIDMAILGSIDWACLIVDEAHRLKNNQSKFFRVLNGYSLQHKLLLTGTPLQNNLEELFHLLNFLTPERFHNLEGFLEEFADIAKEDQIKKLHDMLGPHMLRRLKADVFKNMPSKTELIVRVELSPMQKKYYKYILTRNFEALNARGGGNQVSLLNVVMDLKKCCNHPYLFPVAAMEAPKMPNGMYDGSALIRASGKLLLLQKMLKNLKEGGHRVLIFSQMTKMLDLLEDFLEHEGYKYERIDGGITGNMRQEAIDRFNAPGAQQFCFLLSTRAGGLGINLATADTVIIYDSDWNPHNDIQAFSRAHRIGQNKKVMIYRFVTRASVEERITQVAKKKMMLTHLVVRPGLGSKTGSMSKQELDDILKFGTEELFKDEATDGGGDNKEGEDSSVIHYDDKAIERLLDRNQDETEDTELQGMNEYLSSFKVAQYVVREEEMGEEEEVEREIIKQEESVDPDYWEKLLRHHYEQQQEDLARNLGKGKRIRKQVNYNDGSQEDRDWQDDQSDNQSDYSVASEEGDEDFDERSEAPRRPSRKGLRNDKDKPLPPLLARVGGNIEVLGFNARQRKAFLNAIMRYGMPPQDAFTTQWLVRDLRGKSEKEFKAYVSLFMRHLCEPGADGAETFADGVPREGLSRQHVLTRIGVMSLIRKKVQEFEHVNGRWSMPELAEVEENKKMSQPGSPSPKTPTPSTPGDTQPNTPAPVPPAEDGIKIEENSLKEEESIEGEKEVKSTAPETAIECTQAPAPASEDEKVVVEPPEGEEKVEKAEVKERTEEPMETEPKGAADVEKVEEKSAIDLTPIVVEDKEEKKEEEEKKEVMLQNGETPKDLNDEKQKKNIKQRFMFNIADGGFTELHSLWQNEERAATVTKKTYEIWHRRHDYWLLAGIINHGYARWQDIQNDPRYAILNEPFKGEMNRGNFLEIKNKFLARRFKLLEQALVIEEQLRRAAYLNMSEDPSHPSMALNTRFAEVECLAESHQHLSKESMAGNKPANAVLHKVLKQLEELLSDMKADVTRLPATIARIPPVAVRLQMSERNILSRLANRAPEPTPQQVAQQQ
row,SMILES,Kd
1,CNC(=O)CN1CCC(Oc2cc3c(Nc4cccc(Cl)c4F)ncnc3cc2OC)CC1 [SAPITINIB],> 30 µM (inactive)
2,CN1CCC(CNc2ccc3ncc(-c4cccc(OC(F)(F)F)c4)n3n2)CC1 [SGI-1776],> 30 µM (inactive)
3,O=c1sn(-c2cccc3ccccc23)c(=O)n1Cc1ccccc1 [TIDEGLUSIB],> 30 µM (inactive)
4,COc1cc2nccc(Oc3ccc(NC(=O)Nc4cc(C)on4)c(Cl)c3)c2cc1OC [TIVOZANIB],> 30 µM (inactive)

# Target: T2, Electron transfer flavoprotein subunit beta (Homo sapiens, UniProt P38117)
# T2 sequence (P38117 whole entry): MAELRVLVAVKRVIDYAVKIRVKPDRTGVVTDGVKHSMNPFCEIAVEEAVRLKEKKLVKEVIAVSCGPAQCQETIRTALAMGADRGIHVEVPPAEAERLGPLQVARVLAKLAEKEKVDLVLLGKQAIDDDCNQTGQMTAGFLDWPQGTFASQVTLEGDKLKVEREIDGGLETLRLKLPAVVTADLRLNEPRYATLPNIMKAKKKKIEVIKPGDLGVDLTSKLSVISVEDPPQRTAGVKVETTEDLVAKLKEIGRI
row,SMILES,Kd
1,CNC(=O)CN1CCC(Oc2cc3c(Nc4cccc(Cl)c4F)ncnc3cc2OC)CC1 [SAPITINIB],> 30 µM (inactive)
2,CN1CCC(CNc2ccc3ncc(-c4cccc(OC(F)(F)F)c4)n3n2)CC1 [SGI-1776],> 30 µM (inactive)
3,O=c1sn(-c2cccc3ccccc23)c(=O)n1Cc1ccccc1 [TIDEGLUSIB],> 30 µM (inactive)
4,COc1cc2nccc(Oc3ccc(NC(=O)Nc4cc(C)on4)c(Cl)c3)c2cc1OC [TIVOZANIB],> 30 µM (inactive)

# Target: Inosine-5'-monophosphate dehydrogenase 2 (Homo sapiens, UniProt P12268)
row,SMILES,Kd
1,CNC(=O)CN1CCC(Oc2cc3c(Nc4cccc(Cl)c4F)ncnc3cc2OC)CC1 [SAPITINIB],> 30 µM (inactive)
2,CN1CCC(CNc2ccc3ncc(-c4cccc(OC(F)(F)F)c4)n3n2)CC1 [SGI-1776],> 30 µM (inactive)
3,O=c1sn(-c2cccc3ccccc23)c(=O)n1Cc1ccccc1 [TIDEGLUSIB],> 30 µM (inactive)
4,COc1cc2nccc(Oc3ccc(NC(=O)Nc4cc(C)on4)c(Cl)c3)c2cc1OC [TIVOZANIB],> 30 µM (inactive)

# Target: T3, Tyrosine--tRNA ligase, cytoplasmic (Homo sapiens, UniProt P54577)
# T3 sequence (P54577 whole entry): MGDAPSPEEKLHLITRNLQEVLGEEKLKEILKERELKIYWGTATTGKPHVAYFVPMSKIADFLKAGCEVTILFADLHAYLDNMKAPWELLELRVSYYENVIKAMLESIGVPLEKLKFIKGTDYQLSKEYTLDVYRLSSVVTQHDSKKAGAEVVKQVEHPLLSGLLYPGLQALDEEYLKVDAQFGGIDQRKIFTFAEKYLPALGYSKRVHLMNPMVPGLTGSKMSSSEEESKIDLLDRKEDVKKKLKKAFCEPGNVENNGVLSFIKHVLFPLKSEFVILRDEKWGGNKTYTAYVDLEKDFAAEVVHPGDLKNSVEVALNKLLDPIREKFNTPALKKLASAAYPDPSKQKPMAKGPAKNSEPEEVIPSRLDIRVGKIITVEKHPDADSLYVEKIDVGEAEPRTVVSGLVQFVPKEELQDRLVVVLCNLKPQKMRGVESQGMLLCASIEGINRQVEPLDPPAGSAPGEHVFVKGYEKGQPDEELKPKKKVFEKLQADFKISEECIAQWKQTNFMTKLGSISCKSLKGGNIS
row,SMILES,Kd
1,CNC(=O)CN1CCC(Oc2cc3c(Nc4cccc(Cl)c4F)ncnc3cc2OC)CC1 [SAPITINIB],> 30 µM (inactive)
2,CN1CCC(CNc2ccc3ncc(-c4cccc(OC(F)(F)F)c4)n3n2)CC1 [SGI-1776],> 30 µM (inactive)
3,O=c1sn(-c2cccc3ccccc23)c(=O)n1Cc1ccccc1 [TIDEGLUSIB],> 30 µM (inactive)
4,COc1cc2nccc(Oc3ccc(NC(=O)Nc4cc(C)on4)c(Cl)c3)c2cc1OC [TIVOZANIB],> 30 µM (inactive)

# Target: 26S proteasome regulatory subunit 6B (Homo sapiens, UniProt P43686)
# Sequence (P43686 whole entry): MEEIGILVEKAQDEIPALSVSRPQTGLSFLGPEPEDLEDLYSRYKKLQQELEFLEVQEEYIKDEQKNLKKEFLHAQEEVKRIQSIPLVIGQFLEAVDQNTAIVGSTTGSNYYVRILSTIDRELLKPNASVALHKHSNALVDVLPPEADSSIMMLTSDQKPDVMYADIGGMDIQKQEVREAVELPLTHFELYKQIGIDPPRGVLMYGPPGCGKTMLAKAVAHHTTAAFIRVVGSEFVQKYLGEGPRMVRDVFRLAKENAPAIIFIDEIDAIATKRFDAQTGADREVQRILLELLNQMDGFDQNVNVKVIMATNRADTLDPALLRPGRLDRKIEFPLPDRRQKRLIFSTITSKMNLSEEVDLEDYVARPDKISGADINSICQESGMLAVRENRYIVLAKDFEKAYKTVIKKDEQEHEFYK
row,SMILES,Kd
1,CNC(=O)CN1CCC(Oc2cc3c(Nc4cccc(Cl)c4F)ncnc3cc2OC)CC1 [SAPITINIB],> 30 µM (inactive)
2,CN1CCC(CNc2ccc3ncc(-c4cccc(OC(F)(F)F)c4)n3n2)CC1 [SGI-1776],> 30 µM (inactive)
3,O=c1sn(-c2cccc3ccccc23)c(=O)n1Cc1ccccc1 [TIDEGLUSIB],> 30 µM (inactive)
4,COc1cc2nccc(Oc3ccc(NC(=O)Nc4cc(C)on4)c(Cl)c3)c2cc1OC [TIVOZANIB],> 30 µM (inactive)

# Target: T4, Phenylalanine--tRNA ligase beta subunit (Homo sapiens, UniProt Q9NSD9)
# T4 sequence (Q9NSD9 whole entry): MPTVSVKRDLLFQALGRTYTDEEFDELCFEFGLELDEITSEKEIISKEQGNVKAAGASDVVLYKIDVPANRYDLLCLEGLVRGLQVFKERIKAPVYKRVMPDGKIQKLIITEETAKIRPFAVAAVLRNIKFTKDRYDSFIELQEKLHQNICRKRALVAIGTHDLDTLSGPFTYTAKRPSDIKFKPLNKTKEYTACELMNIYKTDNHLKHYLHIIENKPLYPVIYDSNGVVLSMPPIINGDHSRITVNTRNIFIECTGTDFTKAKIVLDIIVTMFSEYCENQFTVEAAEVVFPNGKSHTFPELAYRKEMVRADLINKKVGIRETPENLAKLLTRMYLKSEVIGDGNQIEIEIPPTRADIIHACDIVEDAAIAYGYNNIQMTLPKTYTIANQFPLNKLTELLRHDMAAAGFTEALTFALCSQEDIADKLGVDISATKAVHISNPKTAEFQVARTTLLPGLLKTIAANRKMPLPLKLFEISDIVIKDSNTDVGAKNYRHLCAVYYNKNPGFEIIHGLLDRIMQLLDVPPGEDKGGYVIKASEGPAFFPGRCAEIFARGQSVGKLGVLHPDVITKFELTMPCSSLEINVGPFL
row,SMILES,Kd
1,CNC(=O)CN1CCC(Oc2cc3c(Nc4cccc(Cl)c4F)ncnc3cc2OC)CC1 [SAPITINIB],> 30 µM (inactive)
2,CN1CCC(CNc2ccc3ncc(-c4cccc(OC(F)(F)F)c4)n3n2)CC1 [SGI-1776],> 30 µM (inactive)
3,O=c1sn(-c2cccc3ccccc23)c(=O)n1Cc1ccccc1 [TIDEGLUSIB],> 30 µM (inactive)
4,COc1cc2nccc(Oc3ccc(NC(=O)Nc4cc(C)on4)c(Cl)c3)c2cc1OC [TIVOZANIB],> 30 µM (inactive)

# Target: Ephrin type-A receptor 2 (Homo sapiens, UniProt P29317)
row,SMILES,Kd
1,CNC(=O)CN1CCC(Oc2cc3c(Nc4cccc(Cl)c4F)ncnc3cc2OC)CC1 [SAPITINIB],8.2 µM
2,CN1CCC(CNc2ccc3ncc(-c4cccc(OC(F)(F)F)c4)n3n2)CC1 [SGI-1776],> 30 µM (inactive)
3,O=c1sn(-c2cccc3ccccc23)c(=O)n1Cc1ccccc1 [TIDEGLUSIB],> 30 µM (inactive)
4,COc1cc2nccc(Oc3ccc(NC(=O)Nc4cc(C)on4)c(Cl)c3)c2cc1OC [TIVOZANIB],0.147 µM (active)

# Target: Adenosine kinase (Homo sapiens, UniProt P55263)
# Sequence (P55263 whole entry): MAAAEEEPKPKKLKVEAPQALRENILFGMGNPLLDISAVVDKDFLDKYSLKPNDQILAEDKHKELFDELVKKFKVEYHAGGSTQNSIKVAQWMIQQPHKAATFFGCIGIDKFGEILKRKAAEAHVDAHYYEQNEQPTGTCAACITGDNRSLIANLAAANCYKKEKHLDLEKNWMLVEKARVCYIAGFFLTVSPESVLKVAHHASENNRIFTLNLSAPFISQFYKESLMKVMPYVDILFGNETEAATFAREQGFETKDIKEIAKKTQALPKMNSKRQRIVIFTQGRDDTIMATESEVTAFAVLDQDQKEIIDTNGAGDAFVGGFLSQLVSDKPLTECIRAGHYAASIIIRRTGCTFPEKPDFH
row,SMILES,Kd
1,CNC(=O)CN1CCC(Oc2cc3c(Nc4cccc(Cl)c4F)ncnc3cc2OC)CC1 [SAPITINIB],1.4 µM
2,CN1CCC(CNc2ccc3ncc(-c4cccc(OC(F)(F)F)c4)n3n2)CC1 [SGI-1776],> 30 µM (inactive)
3,O=c1sn(-c2cccc3ccccc23)c(=O)n1Cc1ccccc1 [TIDEGLUSIB],> 30 µM (inactive)
4,COc1cc2nccc(Oc3ccc(NC(=O)Nc4cc(C)on4)c(Cl)c3)c2cc1OC [TIVOZANIB],> 30 µM (inactive)

# Target: Wee1-like protein kinase (Homo sapiens, UniProt P30291)
# Sequence (P30291 whole entry): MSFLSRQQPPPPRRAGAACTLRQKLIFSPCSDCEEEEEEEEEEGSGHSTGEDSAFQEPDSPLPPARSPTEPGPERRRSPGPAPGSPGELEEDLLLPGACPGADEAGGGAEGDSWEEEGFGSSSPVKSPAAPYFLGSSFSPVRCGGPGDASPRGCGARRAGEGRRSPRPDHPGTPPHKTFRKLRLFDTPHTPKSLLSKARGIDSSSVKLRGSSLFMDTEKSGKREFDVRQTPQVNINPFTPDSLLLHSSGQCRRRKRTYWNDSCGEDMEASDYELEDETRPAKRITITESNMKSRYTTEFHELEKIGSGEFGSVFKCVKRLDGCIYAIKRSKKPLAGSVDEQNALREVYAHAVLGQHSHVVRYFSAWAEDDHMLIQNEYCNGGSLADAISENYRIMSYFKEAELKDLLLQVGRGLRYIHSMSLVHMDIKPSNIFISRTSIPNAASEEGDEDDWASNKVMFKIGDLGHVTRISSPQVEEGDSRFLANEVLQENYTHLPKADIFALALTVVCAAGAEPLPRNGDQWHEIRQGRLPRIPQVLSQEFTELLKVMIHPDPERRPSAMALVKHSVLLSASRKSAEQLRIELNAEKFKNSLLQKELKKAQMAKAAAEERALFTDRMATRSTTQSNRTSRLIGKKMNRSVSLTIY
row,SMILES,Kd
1,CNC(=O)CN1CCC(Oc2cc3c(Nc4cccc(Cl)c4F)ncnc3cc2OC)CC1 [SAPITINIB],> 30 µM (inactive)
2,CN1CCC(CNc2ccc3ncc(-c4cccc(OC(F)(F)F)c4)n3n2)CC1 [SGI-1776],> 30 µM (inactive)
3,O=c1sn(-c2cccc3ccccc23)c(=O)n1Cc1ccccc1 [TIDEGLUSIB],> 30 µM (inactive)
4,COc1cc2nccc(Oc3ccc(NC(=O)Nc4cc(C)on4)c(Cl)c3)c2cc1OC [TIVOZANIB],> 30 µM (inactive)

# Target: Interleukin-1 receptor-associated kinase 1 (Homo sapiens, UniProt P51617)
# Sequence (P51617 whole entry): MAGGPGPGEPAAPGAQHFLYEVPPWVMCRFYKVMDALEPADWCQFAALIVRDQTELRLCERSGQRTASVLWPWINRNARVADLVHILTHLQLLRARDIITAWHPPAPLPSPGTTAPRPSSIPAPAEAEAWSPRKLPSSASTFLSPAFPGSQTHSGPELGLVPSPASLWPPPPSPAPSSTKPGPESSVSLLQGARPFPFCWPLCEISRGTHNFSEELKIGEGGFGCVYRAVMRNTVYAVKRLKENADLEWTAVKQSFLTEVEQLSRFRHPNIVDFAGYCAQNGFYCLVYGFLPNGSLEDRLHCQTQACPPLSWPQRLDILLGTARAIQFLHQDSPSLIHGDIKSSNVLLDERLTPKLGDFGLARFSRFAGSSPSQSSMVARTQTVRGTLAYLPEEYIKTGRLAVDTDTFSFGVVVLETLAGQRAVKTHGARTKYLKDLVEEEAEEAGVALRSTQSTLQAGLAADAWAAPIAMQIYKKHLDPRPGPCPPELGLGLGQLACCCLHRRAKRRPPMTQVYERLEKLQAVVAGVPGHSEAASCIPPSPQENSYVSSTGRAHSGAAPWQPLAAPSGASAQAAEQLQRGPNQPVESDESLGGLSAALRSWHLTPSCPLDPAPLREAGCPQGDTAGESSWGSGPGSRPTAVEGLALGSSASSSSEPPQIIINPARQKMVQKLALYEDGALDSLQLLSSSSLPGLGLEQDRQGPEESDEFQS
row,SMILES,Kd
1,CNC(=O)CN1CCC(Oc2cc3c(Nc4cccc(Cl)c4F)ncnc3cc2OC)CC1 [SAPITINIB],> 30 µM (inactive)
2,CN1CCC(CNc2ccc3ncc(-c4cccc(OC(F)(F)F)c4)n3n2)CC1 [SGI-1776],> 30 µM (inactive)
3,O=c1sn(-c2cccc3ccccc23)c(=O)n1Cc1ccccc1 [TIDEGLUSIB],> 30 µM (inactive)
4,COc1cc2nccc(Oc3ccc(NC(=O)Nc4cc(C)on4)c(Cl)c3)c2cc1OC [TIVOZANIB],> 30 µM (inactive)

# Target: Putative heat shock protein HSP 90-beta 2 (Homo sapiens, UniProt Q58FF8)
# Sequence (Q58FF8 whole entry): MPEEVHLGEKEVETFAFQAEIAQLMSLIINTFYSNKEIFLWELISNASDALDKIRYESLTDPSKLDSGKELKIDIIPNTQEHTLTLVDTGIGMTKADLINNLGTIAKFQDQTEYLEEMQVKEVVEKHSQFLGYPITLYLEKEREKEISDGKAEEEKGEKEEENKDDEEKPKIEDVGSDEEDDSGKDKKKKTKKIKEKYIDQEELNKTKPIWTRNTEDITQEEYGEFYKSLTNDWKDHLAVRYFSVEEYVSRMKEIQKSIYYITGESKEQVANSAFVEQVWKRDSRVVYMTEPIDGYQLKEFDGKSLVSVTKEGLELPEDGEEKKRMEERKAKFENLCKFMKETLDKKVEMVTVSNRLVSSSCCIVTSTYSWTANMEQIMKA
row,SMILES,Kd
1,CNC(=O)CN1CCC(Oc2cc3c(Nc4cccc(Cl)c4F)ncnc3cc2OC)CC1 [SAPITINIB],> 30 µM (inactive)
2,CN1CCC(CNc2ccc3ncc(-c4cccc(OC(F)(F)F)c4)n3n2)CC1 [SGI-1776],> 30 µM (inactive)
3,O=c1sn(-c2cccc3ccccc23)c(=O)n1Cc1ccccc1 [TIDEGLUSIB],> 30 µM (inactive)
4,COc1cc2nccc(Oc3ccc(NC(=O)Nc4cc(C)on4)c(Cl)c3)c2cc1OC [TIVOZANIB],> 30 µM (inactive)

# Target: Myosin-14 (Homo sapiens, UniProt Q7Z406)
row,SMILES,Kd
1,CNC(=O)CN1CCC(Oc2cc3c(Nc4cccc(Cl)c4F)ncnc3cc2OC)CC1 [SAPITINIB],> 30 µM (inactive)
2,CN1CCC(CNc2ccc3ncc(-c4cccc(OC(F)(F)F)c4)n3n2)CC1 [SGI-1776],> 30 µM (inactive)
3,O=c1sn(-c2cccc3ccccc23)c(=O)n1Cc1ccccc1 [TIDEGLUSIB],> 30 µM (inactive)
4,COc1cc2nccc(Oc3ccc(NC(=O)Nc4cc(C)on4)c(Cl)c3)c2cc1OC [TIVOZANIB],> 30 µM (inactive)
